Drawing on PMC2270815, “Inhibition of 11βHSD1 with the S-phenylethylaminothiazolone BVT116429 increases adiponectin concentrations and improves glucose homeostasis in diabetic KKA^y mice” (BMC Pharmacology, 2008), this text covers Ki for 1 molecule.

The target of experiment [1] is T1, 11β HSD1 (11β-hydroxysteroid dehydrogenase type 1) (Homo sapiens, UniProt P28845).
T1 construct: gene HSD11B1; purified recombinant human 11β HSD1
The experiment in a line: in vitro enzyme inhibition assay with purified recombinant enzyme. The experiment is classed as biochemical.

Experiment [2] deals with T2, 11β HSD1 (11β-hydroxysteroid dehydrogenase type 1) (Mus musculus, UniProt P50172).
T2 construct: gene Hsd11b1; purified recombinant mouse 11β HSD1
T2 sequence (P50172 whole entry): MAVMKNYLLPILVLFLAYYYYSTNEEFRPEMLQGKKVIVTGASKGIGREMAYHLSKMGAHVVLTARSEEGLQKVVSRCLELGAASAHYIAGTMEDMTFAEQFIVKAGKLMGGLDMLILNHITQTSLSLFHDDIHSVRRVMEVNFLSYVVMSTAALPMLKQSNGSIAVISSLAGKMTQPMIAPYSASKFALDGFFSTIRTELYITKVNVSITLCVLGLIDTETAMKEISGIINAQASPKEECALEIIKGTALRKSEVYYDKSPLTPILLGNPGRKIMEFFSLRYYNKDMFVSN
Described as above. Format: biochemical.

T1 sequence (P28845 whole entry): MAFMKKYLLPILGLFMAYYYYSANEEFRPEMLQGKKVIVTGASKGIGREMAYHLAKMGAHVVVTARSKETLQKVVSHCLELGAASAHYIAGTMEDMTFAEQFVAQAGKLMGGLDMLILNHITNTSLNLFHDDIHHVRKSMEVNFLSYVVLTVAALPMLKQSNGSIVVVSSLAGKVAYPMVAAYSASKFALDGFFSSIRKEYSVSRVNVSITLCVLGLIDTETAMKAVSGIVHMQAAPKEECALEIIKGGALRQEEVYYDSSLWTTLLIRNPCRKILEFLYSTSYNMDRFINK

For the molecule `C[C@H](NC1=NC(=O)[C@@](C)(C(F)(F)F)S1)c1ccccc1F` [BVT116429, (S)-2-((S)-1-(2-fluorophenyl)ethylamino)-5-methyl-5-(trifluoromethyl)thiazol-4(5H)-one], the Ki in experiment [1] stood at 29 nM; in experiment [2], 36 nM.

For orientation: Ki means a dissociation constant, usually derived from enzyme kinetics or from competition with a known ligand.
